The record followed here is ChEMBL document CHEMBL5214932, “A closer look at N2,6-substituted 1,3,5-triazine-2,4-diamines: Advances in synthesis and biological activities” (Eur J Med Chem, 2022).

Data set [1] has as its system Human immunodeficiency virus 1. Kind of data set: Antiviral activity against NNRTI resistant HIV1 harboring Lys103Asn mutant infected in human MT4 cells assessed as reduction in virus-induced cytopathic effect measured after 5 days by MTT assay. It is filed as functional, organism-based. As to conditions: Human immunodeficiency virus 1, MT4, 120 h.
Data set [2] concerns Human immunodeficiency virus 1. Kind of data set: Antiviral activity against NNRTI resistant HIV1 harboring Gly190Ala mutant infected in human MT4 cells assessed as reduction in virus-induced cytopathic effect measured after 5 days by MTT assay. It is filed as functional, organism-based. To be noted: Human immunodeficiency virus 1, MT4, 120 h.
Data set [3] concerns Human immunodeficiency virus 1. Kind of data set: Antiviral activity against NNRTI resistant HIV1 harboring Tyr188Leu mutant infected in human MT4 cells assessed as reduction in virus-induced cytopathic effect measured after 5 days by MTT assay. It is filed as functional, organism-based. As to conditions: Human immunodeficiency virus 1, MT4, 120 h.
Data set [4] concerns Human immunodeficiency virus 1. Kind of data set: Antiviral activity against NNRTI resistant HIV1 harboring Val106Ala mutant infected in human MT4 cells assessed as reduction in virus-induced cytopathic effect measured after 5 days by MTT assay. To be noted: Human immunodeficiency virus 1, MT4, 120 h. It is filed as functional, organism-based.
For data set [5], the system named is Human immunodeficiency virus 1. Kind of data set: Antiviral activity against wild type HIV1 IIIB assessed as viral growth inhibition measured after 5 days by MTT assay. It is filed as functional, organism-based. As to conditions: Human immunodeficiency virus 1, IIIB, 120 h.
For data set [6], the system named is Human immunodeficiency virus 1. The experiment in a line: Antiviral activity against NNRTI resistant HIV1 harboring Leu100IIe mutant infected in human MT4 cells assessed as reduction in virus-induced cytopathic effect measured after 5 days by MTT assay. It is filed as functional, organism-based. As to conditions: Human immunodeficiency virus 1, MT4, 120 h.
Data set [7] concerns Human immunodeficiency virus 1. The experiment in a line: Antiviral activity against NNRTI resistant HIV1 harboring Tyr181Cys mutant infected in human MT4 cells assessed as reduction in virus-induced cytopathic effect measured after 5 days by MTT assay. It is filed as functional, organism-based. As to conditions: Human immunodeficiency virus 1, MT4, 120 h.
Data set [8] deals with Human immunodeficiency virus 1. Kind of data set: Antiviral activity against NNRTI resistant HIV1 LAI infected in human MT4 cells assessed as reduction in virus-induced cytopathic effect measured after 5 days by MTT assay. It is filed as functional, organism-based. As to conditions: Human immunodeficiency virus 1, LAI, MT4, 120 h.
The test system of data set [9] is HL-60. The experiment in a line: Cytotoxicity against human HL-60 cells assessed as cell growth inhibition. It is filed as functional, cell-based.
Data set [10] has as its system MCF7. The experiment in a line: Cytotoxicity against human MCF7 cells assessed as cell growth inhibition. It is filed as functional, cell-based.
The test system of data set [11] is K562. The experiment in a line: cells. To be noted: Homo sapiens.
Description: Cytotoxicity against human K562 cells assessed as cell growth inhibition
Data set [12] relates to Daudi. Kind of data set: Cytotoxicity against human Daudi cells assessed as cell growth inhibition. It is filed as functional, cell-based.
The subject of data set [13] is AN3-CA. Kind of data set: Cytotoxicity against human AN3-CA cells assessed as cell growth inhibition. It is filed as functional, cell-based.
Data set [14] has as its system HEC-1-A. Kind of data set: Cytotoxicity against human HEC-1-A cells assessed as cell growth inhibition. It is filed as functional, cell-based.
Data set [15] is described as follows: Cytotoxicity against mouse LL2 cells assessed as cell growth inhibition. It is filed as functional, cell-based. As to conditions: Lewis lung carcinoma.
Data set [16] concerns SK-OV-3. Kind of data set: Cytotoxicity against human SK-OV-3 cells assessed as cell growth inhibition. It is filed as functional, cell-based.
Data set [17] is described as follows: Cytotoxicity against human MHOC-59 cell assessed as cell growth inhibition. It is filed as functional, cell-based.
For data set [18], the system named is Jurkat. The experiment in a line: Cytotoxicity against human Jurkat cells assessed as cell growth inhibition. It is filed as functional, cell-based.
For data set [19], the system named is DU-145. The experiment in a line: Cytotoxicity against human DU-145 cells assessed as cell growth inhibition. It is filed as functional, cell-based.
A short description of data set [20]: Cytotoxicity against human IM-9 cells assessed as cell growth inhibition. It is filed as toxicity, cell-based.
For data set [21], the target named is NADPH oxidase 4 (Homo sapiens, UniProt Q9NPH5). The experiment in a line: Inhibition of human NOX4.
Data set [22] deals with NADPH oxidase 1 (Homo sapiens, UniProt Q9Y5S8). Kind of data set: Inhibition of human NOX1.
Data set [23] has as its target NADPH oxidase 3 (Homo sapiens, UniProt Q9HBY0). The experiment in a line: Inhibition of human NOX3.
In data set [24] the target is NADPH oxidase 5 (Homo sapiens, UniProt Q96PH1). Kind of data set: Inhibition of human NOX5.
Data set [25] addresses NADPH oxidase 2 (Homo sapiens, UniProt P04839). Kind of data set: Inhibition of human NOX2.
Data set [26] deals with 5-hydroxytryptamine receptor 1A (Homo sapiens, UniProt P08908). The experiment in a line: Displacement of […] from human 5-HT1AR expressed in HEK293 cells by radioligand binding assay. It is filed as cell-based.
The target in data set [27] is 5-hydroxytryptamine receptor 7 (Homo sapiens, UniProt P34969). The experiment in a line: Displacement of [3H]-5Carboxyamidotryptamine from human 5-HT7R expressed in HEK293 cells by radioligand binding assay. It is filed as cell-based.
Data set [28] has as its target D(2) dopamine receptor (Homo sapiens, UniProt P14416). Kind of data set: Displacement of [3H]-Raclopride from human dopamine D2 receptor expressed in HEK293 cells by radioligand binding assay. It is filed as cell-based.
The target in data set [29] is 5-hydroxytryptamine receptor 2A (Homo sapiens, UniProt P28223). Kind of data set: Displacement of […] from human 5-HT2AR expressed in HEK293 cells by radioligand binding assay. It is filed as cell-based.
The subject of data set [30] is MEF. Kind of data set: Cytotoxicity against mouse MEF cells assessed as cell growth inhibition incubated for 96 hrs by WST-8 assay. It is filed as functional, cell-based.
Data set [31] has as its target 1-acyl-sn-glycerol-3-phosphate acyltransferase beta (Homo sapiens, UniProt O15120). The experiment in a line: Inhibition of LPAAT-beta (unknown origin) expressed in Xenopus laevis oocytes incubated for 3 mins. It is filed as cell-based, Oocyte.
Data set [32] has as its system HeLa. The experiment in a line: Cytotoxicity against human HeLa cells assessed as cell growth inhibition incubated for 96 hrs by WST-8 assay. It is filed as functional, cell-based.
Data set [33] relates to SK-OV-3. Kind of data set: Cytotoxicity against human SK-OV-3 cells assessed as cell growth inhibition incubated for 96 hrs by WST-8 assay. It is filed as functional, cell-based. To be noted: SK-OV-3, 96 h.
Data set [34] in a line: Cytotoxicity against human HCO cell assessed as cell growth inhibition incubated for 96 hrs by WST-8 assay. It is filed as functional, cell-based.
Data set [35] relates to HEK293. The experiment in a line: Cytotoxicity against HEK293 cells assessed as cell growth inhibition incubated for 96 hrs by WST-8 assay. It is filed as functional, cell-based. As to conditions: Homo sapiens, HEK293, 96 h.
Data set [36] concerns Jurkat. Kind of data set: Cytotoxicity against human Jurkat cells assessed as cell growth inhibition measured after 72 hrs by MTS assay. It is filed as functional, cell-based.

Sequence of NADPH oxidase 2 (P04839 whole entry): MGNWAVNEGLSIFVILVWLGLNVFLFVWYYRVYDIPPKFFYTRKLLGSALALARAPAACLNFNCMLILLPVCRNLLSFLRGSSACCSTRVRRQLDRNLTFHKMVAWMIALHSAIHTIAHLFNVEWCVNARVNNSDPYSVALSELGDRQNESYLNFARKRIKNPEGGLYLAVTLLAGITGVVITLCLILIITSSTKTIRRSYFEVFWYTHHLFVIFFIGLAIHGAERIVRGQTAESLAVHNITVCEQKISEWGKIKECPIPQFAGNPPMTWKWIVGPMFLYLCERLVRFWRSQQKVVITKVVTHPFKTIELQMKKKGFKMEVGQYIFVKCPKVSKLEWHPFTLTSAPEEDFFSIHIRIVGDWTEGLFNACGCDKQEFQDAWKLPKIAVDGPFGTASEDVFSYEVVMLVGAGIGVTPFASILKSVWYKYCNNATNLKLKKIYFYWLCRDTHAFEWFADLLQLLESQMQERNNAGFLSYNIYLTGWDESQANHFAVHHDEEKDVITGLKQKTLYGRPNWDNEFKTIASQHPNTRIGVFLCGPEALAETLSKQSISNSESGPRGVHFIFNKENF
Sequence of NADPH oxidase 3 (Q9HBY0 whole entry): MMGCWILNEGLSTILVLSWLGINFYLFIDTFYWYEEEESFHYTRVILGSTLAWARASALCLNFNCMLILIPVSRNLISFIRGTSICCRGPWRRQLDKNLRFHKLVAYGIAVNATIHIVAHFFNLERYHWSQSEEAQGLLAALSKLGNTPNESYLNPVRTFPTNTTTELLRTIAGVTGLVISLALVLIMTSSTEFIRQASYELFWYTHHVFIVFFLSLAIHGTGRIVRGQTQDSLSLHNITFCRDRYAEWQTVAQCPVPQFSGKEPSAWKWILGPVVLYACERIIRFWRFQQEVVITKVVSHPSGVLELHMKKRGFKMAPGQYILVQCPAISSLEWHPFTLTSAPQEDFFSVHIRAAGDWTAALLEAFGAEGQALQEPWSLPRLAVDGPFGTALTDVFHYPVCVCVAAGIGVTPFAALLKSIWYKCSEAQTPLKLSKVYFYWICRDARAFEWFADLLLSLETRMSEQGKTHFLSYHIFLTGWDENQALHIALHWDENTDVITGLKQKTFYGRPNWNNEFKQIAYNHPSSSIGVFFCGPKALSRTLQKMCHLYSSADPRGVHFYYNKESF
Sequence of NADPH oxidase 1 (Q9Y5S8 whole entry): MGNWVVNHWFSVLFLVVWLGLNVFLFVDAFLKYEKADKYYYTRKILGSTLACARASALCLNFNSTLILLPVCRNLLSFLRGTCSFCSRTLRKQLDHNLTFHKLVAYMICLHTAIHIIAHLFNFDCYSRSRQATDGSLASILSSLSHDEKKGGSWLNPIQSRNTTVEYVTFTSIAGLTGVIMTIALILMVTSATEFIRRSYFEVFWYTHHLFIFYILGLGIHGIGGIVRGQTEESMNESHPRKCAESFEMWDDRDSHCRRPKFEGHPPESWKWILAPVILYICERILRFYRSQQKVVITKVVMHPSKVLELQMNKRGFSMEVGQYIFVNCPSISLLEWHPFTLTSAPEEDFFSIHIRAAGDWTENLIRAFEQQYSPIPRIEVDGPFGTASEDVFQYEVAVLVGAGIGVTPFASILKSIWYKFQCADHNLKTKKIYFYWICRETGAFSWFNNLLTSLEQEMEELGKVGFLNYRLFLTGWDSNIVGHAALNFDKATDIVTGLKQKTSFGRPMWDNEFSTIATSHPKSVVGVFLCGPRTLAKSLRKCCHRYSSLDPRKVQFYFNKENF
Sequence of NADPH oxidase 5 (Q96PH1 whole entry): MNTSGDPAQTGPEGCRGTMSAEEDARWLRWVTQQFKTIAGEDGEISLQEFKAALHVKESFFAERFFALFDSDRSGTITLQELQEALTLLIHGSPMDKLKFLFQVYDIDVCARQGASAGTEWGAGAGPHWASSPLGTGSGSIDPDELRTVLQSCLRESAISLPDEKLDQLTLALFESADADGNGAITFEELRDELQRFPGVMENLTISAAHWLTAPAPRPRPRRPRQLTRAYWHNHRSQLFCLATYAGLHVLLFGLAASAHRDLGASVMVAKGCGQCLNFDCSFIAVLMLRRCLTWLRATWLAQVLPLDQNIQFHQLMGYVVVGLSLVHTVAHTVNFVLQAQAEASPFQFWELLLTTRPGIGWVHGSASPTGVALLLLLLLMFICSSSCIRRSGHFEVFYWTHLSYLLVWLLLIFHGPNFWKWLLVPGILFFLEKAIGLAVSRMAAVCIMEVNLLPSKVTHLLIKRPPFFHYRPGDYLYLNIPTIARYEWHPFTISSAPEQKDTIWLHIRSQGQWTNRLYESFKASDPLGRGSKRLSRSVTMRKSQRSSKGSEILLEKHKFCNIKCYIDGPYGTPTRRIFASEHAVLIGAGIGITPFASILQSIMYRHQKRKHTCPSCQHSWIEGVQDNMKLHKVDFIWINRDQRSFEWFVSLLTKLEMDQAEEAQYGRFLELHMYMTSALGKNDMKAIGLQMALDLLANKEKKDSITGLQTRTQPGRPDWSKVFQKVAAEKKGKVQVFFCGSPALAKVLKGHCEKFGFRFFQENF
Sequence of 5-hydroxytryptamine receptor 7 (P34969 whole entry): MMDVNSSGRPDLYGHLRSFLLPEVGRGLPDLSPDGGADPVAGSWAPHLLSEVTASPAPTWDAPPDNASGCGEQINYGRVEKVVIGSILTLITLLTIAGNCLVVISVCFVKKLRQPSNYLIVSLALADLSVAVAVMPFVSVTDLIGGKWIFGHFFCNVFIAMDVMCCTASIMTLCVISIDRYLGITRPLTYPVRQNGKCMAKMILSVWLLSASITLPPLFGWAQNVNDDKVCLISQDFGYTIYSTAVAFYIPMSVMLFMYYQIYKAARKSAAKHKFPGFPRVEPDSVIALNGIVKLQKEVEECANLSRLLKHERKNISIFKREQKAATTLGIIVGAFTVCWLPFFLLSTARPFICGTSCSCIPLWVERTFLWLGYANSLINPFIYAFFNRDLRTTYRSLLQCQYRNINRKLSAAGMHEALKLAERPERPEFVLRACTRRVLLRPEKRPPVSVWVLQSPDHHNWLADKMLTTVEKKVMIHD
Sequence of 5-hydroxytryptamine receptor 2A (P28223 whole entry): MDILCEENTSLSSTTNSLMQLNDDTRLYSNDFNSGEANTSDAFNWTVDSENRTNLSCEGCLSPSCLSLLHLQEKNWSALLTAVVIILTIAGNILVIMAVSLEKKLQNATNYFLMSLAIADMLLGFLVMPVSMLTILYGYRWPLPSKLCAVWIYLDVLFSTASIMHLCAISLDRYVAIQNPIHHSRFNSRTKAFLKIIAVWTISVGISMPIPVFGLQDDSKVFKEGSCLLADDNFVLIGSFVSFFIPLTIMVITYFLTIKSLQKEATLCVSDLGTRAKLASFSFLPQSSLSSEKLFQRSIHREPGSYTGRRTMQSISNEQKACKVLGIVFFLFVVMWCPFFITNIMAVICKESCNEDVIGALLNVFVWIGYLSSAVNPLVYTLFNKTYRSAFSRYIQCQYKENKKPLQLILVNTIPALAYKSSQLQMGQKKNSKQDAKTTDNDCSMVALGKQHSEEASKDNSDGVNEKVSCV
Sequence of NADPH oxidase 4 (Q9NPH5 whole entry): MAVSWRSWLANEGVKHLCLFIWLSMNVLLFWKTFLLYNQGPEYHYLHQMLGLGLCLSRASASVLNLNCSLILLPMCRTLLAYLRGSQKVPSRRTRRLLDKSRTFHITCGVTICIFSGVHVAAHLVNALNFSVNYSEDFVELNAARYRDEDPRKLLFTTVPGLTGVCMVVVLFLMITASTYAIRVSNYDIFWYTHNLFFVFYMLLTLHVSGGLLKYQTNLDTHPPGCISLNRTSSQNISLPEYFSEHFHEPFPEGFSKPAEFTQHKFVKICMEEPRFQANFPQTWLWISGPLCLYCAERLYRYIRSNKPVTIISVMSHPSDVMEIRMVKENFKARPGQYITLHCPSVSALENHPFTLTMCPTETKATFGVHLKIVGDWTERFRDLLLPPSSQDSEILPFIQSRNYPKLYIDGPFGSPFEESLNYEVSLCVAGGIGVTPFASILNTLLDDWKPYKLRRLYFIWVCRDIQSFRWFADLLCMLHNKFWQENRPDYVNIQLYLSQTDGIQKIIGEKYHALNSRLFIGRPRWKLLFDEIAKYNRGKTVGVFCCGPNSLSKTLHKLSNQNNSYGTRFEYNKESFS
Sequence of D(2) dopamine receptor (P14416 whole entry): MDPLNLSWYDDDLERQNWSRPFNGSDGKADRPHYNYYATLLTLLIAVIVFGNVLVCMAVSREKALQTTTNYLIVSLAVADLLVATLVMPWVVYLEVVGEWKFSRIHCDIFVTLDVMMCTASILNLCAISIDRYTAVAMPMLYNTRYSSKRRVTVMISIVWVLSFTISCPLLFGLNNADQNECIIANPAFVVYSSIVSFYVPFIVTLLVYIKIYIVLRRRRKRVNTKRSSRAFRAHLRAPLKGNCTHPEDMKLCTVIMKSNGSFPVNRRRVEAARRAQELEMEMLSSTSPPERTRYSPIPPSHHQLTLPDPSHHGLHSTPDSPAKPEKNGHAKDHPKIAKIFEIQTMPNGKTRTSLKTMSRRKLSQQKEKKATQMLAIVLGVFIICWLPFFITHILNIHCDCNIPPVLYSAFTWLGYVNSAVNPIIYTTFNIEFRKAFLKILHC
Sequence of 5-hydroxytryptamine receptor 1A (P08908 whole entry): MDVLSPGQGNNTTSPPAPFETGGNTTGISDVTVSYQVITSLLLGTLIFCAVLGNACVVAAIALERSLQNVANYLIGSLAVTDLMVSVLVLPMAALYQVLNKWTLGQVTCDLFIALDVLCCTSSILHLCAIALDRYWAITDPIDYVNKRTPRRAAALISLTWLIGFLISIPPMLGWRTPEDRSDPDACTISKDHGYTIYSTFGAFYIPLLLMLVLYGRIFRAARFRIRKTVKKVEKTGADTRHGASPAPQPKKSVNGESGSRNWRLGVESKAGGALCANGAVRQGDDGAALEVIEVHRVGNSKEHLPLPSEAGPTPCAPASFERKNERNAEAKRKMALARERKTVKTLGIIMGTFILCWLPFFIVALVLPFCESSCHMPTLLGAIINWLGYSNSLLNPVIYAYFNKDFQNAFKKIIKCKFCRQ

For the molecule `N#Cc1ccc(Nc2nc(N)nc(Cc3c(Cl)ccc4[nH]ccc34)n2)cc1`, the IC50 in [1] amounted to 63 nM; in [2], 3 nM; in [3] it was 1000 nM; in [4], 63 nM; in [5], 3 nM; in data set [6], 1000 nM. Moreover, in data set [7], the IC50 turned out to be 250 nM.

Consider `N#Cc1ccc(Nc2nc(N)nc(Cc3c(Cl)cccc3Cl)n2)cc1`, for which the IC50 in data set [1] was 40 nM; in data set [2], 1 nM; in data set [8], 6.3 nM; in data set [4], 26 nM; in data set [5] it was 2 nM; in data set [6], 293 nM. In [7], the IC50 came out at 200 nM.

For `CCOc1ccc(Cl)cc1-c1nc(N)nc(Nc2ccc(CO)cc2)n1`, the IC50 in data set [9] is below 12.5 nM; in data set [10], 40 nM; in data set [11], below 12.5 nM; in [12], 13 nM; in data set [13], 32 nM; in [14] it was 41 nM. In addition, the IC50 was 25 nM in [15]; 29 nM in [16]; 25 nM in data set [17]; below 12.5 nM in [18]; 25 nM in [19]; below 12.5 nM in data set [20].

Take `Cc1ccc(N2CCN(c3nc(N)nc(Nc4ccc(C)c(C)c4)n3)CC2)cc1`: the IC50 was 680 nM in data set [21]; 7000 nM in data set [22]; 3200 nM in data set [23]; 570 nM in data set [24]; 16000 nM in [25].

For the molecule `COc1cccc(N2CCN(Cc3nc(N)nc(Nc4ccc(C)c(C)c4)n3)CC2)c1`, the results for the IC50 in [22], in data set [23] and in data set [25] were above 10000 nM, 1250 nM and 1250 nM, respectively.

As for `CN1CCN(c2nc(N)nc(C(C)(C)Sc3ccc4ccccc4c3)n2)CC1`, the Ki in [26] was 2290 nM; in data set [27], 610 nM; in data set [28] it was 300 nM; in [29], 39 nM.

Turning to `CCc1ccc(Nc2nc(N)nc(-c3oc4ccccc4c3C)n2)cc1`, the IC50 in [30] amounted to 48 nM; in [31], 15 nM; in data set [32] it was 111 nM; in data set [33], 79 nM; in data set [34], 63 nM; in [35] it was 25 nM.

Consider `Cc1ccc(Cl)cc1-c1nc(N)nc(Nc2ccc(Br)cc2)n1`, for which the IC50 in [10] came to 90 nM; in data set [11] it was 50 nM; in data set [12], 70 nM; in data set [13] it was 37 nM; in data set [14], 100 nM; in [15] it was 75 nM. The half-inhibitory concentration (IC50) was determined as 104 nM in data set [17], 50 nM in data set [18], 70 nM in data set [19] and 50 nM in data set [20].

Take `Nc1nc(-c2ccccc2)nc(N2CCc3ccccc3C2)n1`: in data set [36], the IC50 was found to be 1950 nM.
